Where two headings read alike, the source gives them in different places.
How the values were obtained:
P. falciparum NF54 [1] = test system: P. falciparum NF54; parameters: method as in PMID 33925485; details: formerly prepared compounds 1–5, cited from earlier work; for IC50: chloroquine-sensitive strain NF54, read-out: P.f. NF54 IC50
L-6 cells [2] = test system: L-6 cells; parameters: method as in PMID 33925485; details: formerly prepared compounds 1–5; read-out: Cytotoxicity L-6 Cells IC50; cited from earlier work
CYP3A4 = CYP3A4 (Homo sapiens, UniProt P08684); assay: Cytochrome P450 3A4 inhibition assay (P450-Glo, Luciferin-IPA); details: recombinant human CYP3A4 Supersomes (+ oxidoreductase + b5), pH 7.4, probe Luciferin-IPA
CYP3A4, sequence (P08684 2-503 limits assumed): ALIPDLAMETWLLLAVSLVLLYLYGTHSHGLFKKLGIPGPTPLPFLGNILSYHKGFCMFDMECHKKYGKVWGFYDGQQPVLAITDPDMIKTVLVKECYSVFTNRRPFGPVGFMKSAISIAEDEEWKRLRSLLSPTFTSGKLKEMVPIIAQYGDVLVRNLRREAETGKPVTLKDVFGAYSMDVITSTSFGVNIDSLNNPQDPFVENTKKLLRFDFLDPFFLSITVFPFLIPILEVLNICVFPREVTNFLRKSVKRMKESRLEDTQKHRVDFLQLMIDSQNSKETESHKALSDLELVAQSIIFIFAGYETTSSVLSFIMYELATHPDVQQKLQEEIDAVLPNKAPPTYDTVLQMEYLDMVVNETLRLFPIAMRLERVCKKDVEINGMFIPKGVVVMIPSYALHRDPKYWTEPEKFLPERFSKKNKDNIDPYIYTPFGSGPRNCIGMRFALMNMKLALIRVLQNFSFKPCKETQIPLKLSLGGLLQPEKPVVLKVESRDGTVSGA
Experimental: The CYP3A4 inhibition assay was performed using 96-well white plates (Greiner Bio-One) at a pH of 7.4. […] Stock solutions were further diluted to a final concentration of 20 µM using water (HPLC grade). The luciferin IPA stock solution (3 mM) was diluted to a final concentration of 0.3 mM using water (HPLC grade). The CYP3A4 reaction mixture was prepared by mixing water (HPLC grade) with potassium phosphate buffer (1 M), luciferin IPA (0.3 mM) and CYP3A4 membrane (1 pmol/µL). The control reaction mixture was prepared using water (HPLC grade), potassium phosphate buffer (1 M), luciferin IPA (0.3 mM) and membrane without CYP activity (1 pmol/µL). Solutions A and B of the NADPH regeneration system were mixed and HPLC grade water was added. The reconstituted luciferin detection reagent was prepared by mixing the reconstituted buffer with esterase with the luciferin detection reagent. Then, solutions of test compounds and standard were added to the wells of the 96-well white plate; each was tested in triplicate. The CYP3A4 reaction mixture was added to each well and the plate was incubated for 10 min at room temperature. After that, the NADPH regeneration system was added, inducing the reaction followed by an incubation time of 10 min at ambient temperature. By adding the reconstituted luciferin detection reagent, the reaction was terminated and a luminescent signal was formed. Luminescence was measured by a SpectraMax M3 UV plate reader (Molecular Devices). The relative light units (RLU) were received from a calibration curve with beetle luciferin. […] The CYP3A4 inhibition (%) was calculated from the RLU.

P. falciparum NF54 [3] = assay: In vitro microplate assay against P. falciparum (3H-hypoxanthine incorporation); type: cell-based, Plasmodium falciparum; details: for S.I. = IC50 (Cyt.)/IC50 (P.f.NF54): L-6 cells vs P.f. NF54
Experimental: In vitro activity against the erythrocytic stages of P. falciparum was determined using a ^3H-hypoxanthine incorporation assay, using the drug sensitive NF54 strain [37]. […] The 96-well plates were incubated in a humidified atmosphere at 37 °C, 4% CO2, 3% O2 and 93% N2. After 48 h, 0.05 mL of ^3H-hypoxanthine (=0.5 µCi) was added to each well of the plate. The plates were incubated for a further 24 h under the same conditions. The plates were then harvested with a Betaplate cell harvester (Wallac, Zurich, Switzerland). The red blood cells were transferred onto a glass fiber filter and washed with distilled water. The dried filters were inserted into a plastic foil with 10 mL of scintillation fluid and counted in a Betaplate liquid scintillation counter (Wallac, Zurich, Switzerland). The IC50 values were calculated from sigmoidal inhibition curves by linear regression using Microsoft Excel. Chloroquine (Sigma C6628) was used as control.

L-6 cells [4] = assay: In vitro cytotoxicity with L-6 cells (resazurin); type: cell-based, rat
Experimental: (§1) Serial drug dilutions of 11 3-fold dilution steps covering a range from 100 to 0.002 μg/mL were prepared. After 70 h of incubation, the plates were inspected under an inverted microscope to assure the growth of the controls and sterile conditions. […] The plates were read with a Spectramax Gemini XS microplate fluorometer (Molecular Devices Cooperation, Sunnyvale, CA, USA) using an excitation wavelength of 536 nm and an emission wavelength of 588 nm. The IC50 values were calculated by linear regression from the sigmoidal dose inhibition curves using SoftmaxPro software Version 8.2.1 (Molecular Devices Cooperation, Sunnyvale, CA, USA). Podophyllotoxin (Sigma P4405) was used as control.

[5] = In vitro cytotoxicity with L-6 cells (resazurin); type: cell-based, rat; details: rat
Experimental: as §1

[6] = rat skeletal myofibroblasts, average of four determinations, read-out: Cytotoxicity L-6 Cells IC50

CCOc1ccc(-c2nonc2NC(=O)c2cccc(C)c2)cc1OCC [Compound 1, reference compound]
IC50 (P. falciparum NF54 [1]): 0.011 µM
S.I. = IC50 (Cyt.)/IC50 (P.f.NF54) (P. falciparum NF54 [1]): 14,483
IC50 (L-6 cells [2]): 159 µM
inhibition at 10 min, 20 µM (CYP3A4): 45%

CCN(CC)CCCC(C)Nc1ccnc2cc(Cl)ccc12 (stereo not drawn) [CQ, chloroquine, reference compound]
S.I. = IC50 (Cyt.)/IC50 (P.f.NF54) (P. falciparum NF54 [3]): 9672
IC50 (P. falciparum NF54 [3]; Plasmodium falciparum, NF54, read-out: P.f. NF54 IC50): 0.009 µM
IC50 (L-6 cells [4]; [6]): 90.9 µM

CCOc1ccc(-c2nonc2NC(=O)c2cccc(C(F)(F)F)c2)cc1OCC [Compound 4]
IC50 (P. falciparum NF54 [1]): 0.019 µM
S.I. = IC50 (Cyt.)/IC50 (P.f.NF54) (P. falciparum NF54 [1]): 524.6
IC50 (L-6 cells [2]): 9.97 µM

CCOc1ccc(-c2nonc2NC(=O)c2ccccc2)cc1OCC [Compound 2]
IC50 (P. falciparum NF54 [1]): 0.076 µM
S.I. = IC50 (Cyt.)/IC50 (P.f.NF54) (P. falciparum NF54 [1]): 1463
IC50 (L-6 cells [2]): 111 µM

CCOc1ccc(-c2nonc2NC(=O)c2cccc(F)c2)cc1OCC [Compound 3]
IC50 (P. falciparum NF54 [1]): 0.049 µM
S.I. = IC50 (Cyt.)/IC50 (P.f.NF54) (P. falciparum NF54 [1]): 839.6
IC50 (L-6 cells [2]): 41.1 µM

COc1cc([C@@H]2c3cc4c(cc3[C@H](O)[C@H]3COC(=O)[C@H]23)OCO4)cc(OC)c1OC [POD, podophyllotoxin, reference compound]
IC50 (L-6 cells [4]; [6]): 0.012 µM

N-[4-(4-Fluorophenyl)-3-(trifluoromethyl)-1,2,5-oxadiazol-3-yl]benzamide [Compound 50]
IC50 (P. falciparum NF54 [3]; chloroquine-sensitive strain NF54, average of four determinations, read-out: P.f. NF54 IC50): 8.68 µM
IC50 (L-6 cells [4]): 7.4 µM

CCOc1ccc(-c2nonc2NC(=O)c2ccc(OC)c(Cl)c2)cc1OCC [Compound 5]
IC50 (P. falciparum NF54 [1]): 0.014 µM
S.I. = IC50 (Cyt.)/IC50 (P.f.NF54) (P. falciparum NF54 [1]): 1431
IC50 (L-6 cells [2]): 20 µM

Cc1cccc(C(=O)Nc2nonc2-c2ccc(Cl)cc2)c1 [Compound 47, N-[4-(4-Chlorophenyl)-1,2,5-oxadiazol-3-yl]-3-methylbenzamide]
S.I. = IC50 (Cyt.)/IC50 (P.f.NF54) (P. falciparum NF54 [3]): 15.54
IC50 (P. falciparum NF54 [3]; Plasmodium falciparum, NF54, chloroquine-sensitive strain NF54, average of four determinations, read-out: P.f. NF54 IC50): 8.73 µM
IC50 at 72 h [5]: 136 µM
melting point: 165 °C
inhibition at 10 min, 20 µM (CYP3A4): 57%

— PMC10572347, “Structure–Activity Relationships and Antiplasmodial Potencies of Novel 3,4-Disubstituted 1,2,5-Oxadiazoles” (International Journal of Molecular Sciences, 2023)
